Data published in the NIST ThermoML archive (doi:10.1021/je060339m).

Conditions: Liquid

CCCCCOC(C)=O [pentyl ethanoate]
mass density [kg/m3]
Conditions	298.15 K	303.15 K	308.15 K	313.15 K	318.15 K	323.15 K	328.15 K	333.15 K	338.15 K	343.15 K
100 kPa	871.4	866.5	861.6	856.7	851.9	847.1	842.3	837.8	832.9	828.3
1000 kPa	871.9	867.1	862.2	857.4	852.6	847.7	843.2	838.7	834	829.3
2000 kPa	872.7	867.9	863.1	858.3	853.5	848.7	844.4	839.8	835.1	830.4
2700 kPa	873.3	868.5	863.7	858.9	854.2	849.3	845.2	840.5	835.8	831.2
3000 kPa	873.5	868.7	863.9	859.2	854.4	849.6	845.5	840.8	836.1	831.5
5000 kPa	875.3	870.5	865.8	861	856.4	851.7	847.1	842.7	838.1	833.5
10000 kPa	879.1	874.4	869.8	865.2	860.7	856.1	851.6	847.4	842.9	838.5
15000 kPa	882.7	878.1	873.6	869	864.7	860.2	855.9	851.8	847.5	843.2
20000 kPa	886.2	881.6	877.3	872.8	868.5	864.2	860	856	851.9	847.7
25000 kPa	889.6	885.1	880.8	876.4	872.3	868.1	864.1	860.1	856.2	–
30000 kPa	893.6	889.4	885.2	880.9	876.9	872.8	869	865.1	861.3	–
35000 kPa	897.9	893.8	889.7	885.5	881.7	877.6	874	870.2	866.5	–
